Test results as given in ChEMBL document CHEMBL4130567, “Discovery of Thiophene[3,2-d]pyrimidine Derivatives as Potent HIV-1 NNRTIs Targeting the Tolerant Region I of NNIBP” (ACS Med Chem Lett, 2017).

Experiments:
[1] = Cytotoxicity against human MT4 cells assessed as reduction in cell viability after 5 days by MTT assay; assay type: cell-based
[2] = tested on: Human immunodeficiency virus 1; test: Antiviral activity against HIV1 3B harboring reverse transcriptase L100I mutant infected in human MT4 cells assessed as inhibition of virus-induced cytopathic effect after 5 days by MTT assay; assay type: functional, organism-based; conditions: Human immunodeficiency virus 1, 3B, MT4, 120 h
[3] = tested on: Human immunodeficiency virus 2; test: Antiviral activity against HIV2 ROD infected in human MT4 cells assessed as inhibition of virus-induced cytopathic effect after 5 days by MTT assay; assay type: functional, organism-based; conditions: Human immunodeficiency virus 2, ISOLATE ROD, MT4, 120 h
[4] = tested on: Human immunodeficiency virus 1; test: Antiviral activity against HIV1 3B harboring reverse transcriptase E138K mutant infected in human MT4 cells assessed as inhibition of virus-induced cytopathic effect after 5 days by MTT assay; assay type: functional, organism-based; conditions: Human immunodeficiency virus 1, 3B, MT4, 120 h
[5] = tested on: Human immunodeficiency virus 1; test: Antiviral activity against HIV1 3B harboring reverse transcriptase F227L/V106A double mutant infected in human MT4 cells assessed as inhibition of virus-induced cytopathic effect after 5 days by MTT assay; assay type: functional, organism-based; conditions: Human immunodeficiency virus 1, 3B, MT4, 120 h
[6] = tested on: Human immunodeficiency virus 1; test: Antiviral activity against HIV1 3B harboring reverse transcriptase Y188L mutant infected in human MT4 cells assessed as inhibition of virus-induced cytopathic effect after 5 days by MTT assay; assay type: functional, organism-based; conditions: Human immunodeficiency virus 1, 3B, MT4, 120 h
[7] = Selectivity index, ratio of CC50 for human MT4 cells to EC50 for wild type HIV1 3B infected in human MT4 cells; assay type: toxicity, cell-based; conditions: MT4 cells infected with wild type HIV1 3B, read-out: Ratio CC50/EC50
[8] = tested on: Human immunodeficiency virus 1; test: Antiviral activity against wild type HIV1 3B infected in human MT4 cells assessed as inhibition of virus-induced cytopathic effect after 5 days by MTT assay; assay type: functional, organism-based; conditions: Human immunodeficiency virus 1, 3B, MT4, 120 h
[9] = tested on: Human immunodeficiency virus 1; test: Antiviral activity against HIV1 3B harboring reverse transcriptase Y181C mutant infected in human MT4 cells assessed as inhibition of virus-induced cytopathic effect after 5 days by MTT assay; assay type: functional, organism-based; conditions: Human immunodeficiency virus 1, 3B, MT4, 120 h
[10] = tested on: Human immunodeficiency virus 1; test: Antiviral activity against HIV1 3B harboring reverse transcriptase K103N mutant infected in human MT4 cells assessed as inhibition of virus-induced cytopathic effect after 5 days by MTT assay; assay type: functional, organism-based; conditions: Human immunodeficiency virus 1, 3B, MT4, 120 h
[11] = tested on: Human immunodeficiency virus 1; test: Antiviral activity against HIV1 3B harboring reverse transcriptase RES056 double mutant infected in human MT4 cells assessed as inhibition of virus-induced cytopathic effect after 5 days by MTT assay; assay type: functional, organism-based; conditions: Human immunodeficiency virus 1, 3B, MT4, 120 h
[12] = target: Human immunodeficiency virus type 1 reverse transcriptase (Human immunodeficiency virus 1, UniProt Q72547); test: Inhibition of recombinant wild type HIV1 reverse transcriptase using DIG-labeled dUTP/biotin-labeled dUTP and dTTP as template and viral nucleotides assessed as decrease in biotin-dUTP incorporation after 1 hr by ELISA

Cc1cc(C#N)cc(C)c1Oc1nc(NC2CCC(NC(=O)c3ccccc3)CC2)nc2ccsc12 (stereo not given)
CC50 at 120 h [1]: 3930 nM | EC50 [2]: > 3920 nM | EC50 [3]: > 3930 nM | EC50 [4]: 183 nM | EC50 [5]: > 3920 nM | EC50 [6]: > 3920 nM | selectivity ratio [7]: 294 | EC50 [8]: 13 nM | EC50 [9]: ≥ 1510 nM | EC50 [10]: 273 nM | EC50 [11]: > 3920 nM

Cc1cn([C@H]2C[C@H](N=[N+]=[N-])[C@@H](CO)O2)c(=O)[nH]c1=O [ZIDOVUDINE]
CC50 at 120 h [1]: > 7480 nM | EC50 [2]: 5.4 nM | EC50 [3]: 8 nM | EC50 [4]: 17 nM | EC50 [5]: 5.3 nM | EC50 [6]: 8 nM | selectivity ratio [7]: > 664 | EC50 [9]: 6.3 nM | EC50 [10]: 7.8 nM | EC50 [11]: 11 nM

Cc1cc(C#N)cc(C)c1Oc1nc(NC2CCC(NS(=O)(=O)c3ccc(F)cc3)CC2)nc2ccsc12 (stereo not given)
CC50 at 120 h [1]: 3530 nM | EC50 [2]: 410 nM | EC50 [3]: > 3530 nM | EC50 [4]: 76 nM | EC50 [5]: > 3520 nM | EC50 [6]: > 3520 nM | selectivity ratio [7]: 383 | EC50 [8]: 9.2 nM | EC50 [9]: 472 nM | EC50 [10]: 103 nM | EC50 [11]: > 3520 nM

Cc1cc(C#N)cc(C)c1Oc1nc(NC2CCC(NC(=O)c3cccc(C(F)(F)F)c3)CC2)nc2ccsc12 (stereo not given)
CC50 at 120 h [1]: 3240 nM | EC50 [2]: > 3240 nM | EC50 [3]: > 3240 nM | EC50 [4]: ≥ 1330 nM | EC50 [5]: > 3240 nM | EC50 [6]: > 3240 nM | selectivity ratio [7]: 17 | EC50 [8]: 196 nM | EC50 [9]: > 3240 nM | EC50 [10]: > 3240 nM | EC50 [11]: > 3240 nM

Cc1cc(C#N)cc(C)c1Oc1nc(NC2CCC(NC(=O)c3ccc(F)cc3)CC2)nc2ccsc12 (stereo not given)
CC50 at 120 h [1]: 3180 nM | EC50 [2]: > 3180 nM | EC50 [3]: > 3180 nM | EC50 [4]: 230 nM | EC50 [5]: > 3180 nM | EC50 [6]: > 3180 nM | selectivity ratio [7]: 121 | EC50 [8]: 26 nM | EC50 [9]: > 3180 nM | EC50 [10]: 478 nM | EC50 [11]: > 3180 nM

Cc1cc(C#N)cc(C)c1Oc1nc(NC2CCC(NC(=O)c3ccc(Br)cc3)CC2)nc2ccsc12 (stereo not given)
CC50 at 120 h [1]: 2850 nM | EC50 [2]: > 2850 nM | EC50 [3]: > 2850 nM | EC50 [4]: 370 nM | EC50 [5]: > 2850 nM | EC50 [6]: > 2850 nM | selectivity ratio [7]: 93 | EC50 [8]: 30 nM | EC50 [9]: > 2850 nM | EC50 [10]: 519 nM | EC50 [11]: > 2850 nM

Cc1cc(C#N)cc(C)c1Oc1nc(NC2CCC(NC(=O)c3ccc(C#N)cc3)CC2)nc2ccsc12 (stereo not given)
CC50 at 120 h [1]: 2620 nM | EC50 [2]: > 2620 nM | EC50 [3]: > 2620 nM | EC50 [4]: 736 nM | EC50 [5]: > 2620 nM | EC50 [6]: > 2620 nM | selectivity ratio [7]: 19 | EC50 [8]: 138 nM | EC50 [9]: > 2620 nM | EC50 [10]: ≥ 1440 nM | EC50 [11]: > 2620 nM

CC(=O)Nc1ccc(S(=O)(=O)NC2CCC(Nc3nc(Oc4c(C)cc(C#N)cc4C)c4sccc4n3)CC2)cc1 (stereo not given)
CC50 at 120 h [1]: 3730 nM | EC50 [2]: 562 nM | EC50 [3]: > 3730 nM | EC50 [4]: 35 nM | EC50 [5]: 1210 nM | EC50 [6]: 903 nM | selectivity ratio [7]: 340 | IC50 [12]: 1040 nM | EC50 [8]: 10 nM | EC50 [9]: 513 nM | EC50 [10]: 32 nM | EC50 [11]: > 3730 nM

Cc1cc(C#N)cc(C)c1Oc1nc(NC2CCC(NS(=O)(=O)c3cccc(C(F)(F)F)c3)CC2)nc2ccsc12 (stereo not given)
CC50 at 120 h [1]: 6680 nM | EC50 [2]: ≥ 4090 nM | EC50 [3]: > 6680 nM | EC50 [4]: 642 nM | EC50 [5]: > 6690 nM | EC50 [6]: > 6690 nM | selectivity ratio [7]: 78 | EC50 [8]: 86 nM | EC50 [9]: ≥ 4340 nM | EC50 [10]: 569 nM | EC50 [11]: > 6690 nM

Cc1cc(C#N)cc(C)c1Oc1nc(NC2CCC(NS(=O)(=O)c3ccc(Br)cc3)CC2)nc2ccsc12 (stereo not given)
CC50 at 120 h [1]: 5860 nM | EC50 [2]: 841 nM | EC50 [3]: > 5860 nM | EC50 [4]: 126 nM | EC50 [5]: ≥ 6140 nM | EC50 [6]: 2250 nM | selectivity ratio [7]: 231 | EC50 [8]: 25 nM | EC50 [9]: 852 nM | EC50 [10]: 131 nM | EC50 [11]: 5870 nM

Cc1cc(C#N)cc(C)c1Oc1nc(NC2CCC(NS(=O)(=O)c3ccc(C#N)cc3)CC2)nc2ccsc12 (stereo not given)
CC50 at 120 h [1]: 9290 nM | EC50 [2]: 424 nM | EC50 [3]: > 9290 nM | EC50 [4]: 45 nM | EC50 [5]: 3580 nM | EC50 [6]: 675 nM | selectivity ratio [7]: 1310 | IC50 [12]: 1140 nM | EC50 [8]: 7.1 nM | EC50 [9]: 428 nM | EC50 [10]: 70 nM | EC50 [11]: > 9280 nM

Cc1cc(C#N)cc(C)c1Oc1nc(Nc2ccc(C#N)cc2)nc(N)c1Br [ETRAVIRINE]
CC50 at 120 h [1]: 2180 nM | EC50 [2]: 9.7 nM | EC50 [5]: 23 nM | EC50 [6]: 20 nM | EC50 [8]: 2.8 nM | EC50 [9]: 19 nM | EC50 [10]: 3.4 nM | EC50 [11]: 26 nM
